We go through 17 compounds from US12612410B2 (CHILDREN'S HOSPITAL MEDICAL CENTER, priority 2020, dated 2026).

The term IC50 denotes the concentration needed to halve the response being measured. Higher therefore signals weaker potency.

Each structure is given as a SMILES string. Where only a bound is given, the exact number is not on record here.

What all share (assay type): biochemical
Holding throughout (conditions): isolated kinase, 33P-ATP

One assay deals with T1, IRAK4 (Homo sapiens, UniProt Q9NWZ3).
T1 sequence (Q9NWZ3 1-460): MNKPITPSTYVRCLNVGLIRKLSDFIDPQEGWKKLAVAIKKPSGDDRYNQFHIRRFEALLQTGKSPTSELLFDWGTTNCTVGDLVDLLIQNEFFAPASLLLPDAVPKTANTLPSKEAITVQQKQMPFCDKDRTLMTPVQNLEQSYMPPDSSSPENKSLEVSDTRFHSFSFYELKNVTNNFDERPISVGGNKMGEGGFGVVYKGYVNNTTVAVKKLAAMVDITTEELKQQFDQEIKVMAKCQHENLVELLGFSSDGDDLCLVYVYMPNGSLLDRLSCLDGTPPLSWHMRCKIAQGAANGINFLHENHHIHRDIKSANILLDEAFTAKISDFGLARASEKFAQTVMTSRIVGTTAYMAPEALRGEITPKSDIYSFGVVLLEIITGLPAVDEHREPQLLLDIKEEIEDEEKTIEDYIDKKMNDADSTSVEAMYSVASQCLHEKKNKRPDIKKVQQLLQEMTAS
The assay is described as follows: RBC HotSpot Kinase Assay, IRAK4. Also noted: purchased Reaction Biology (RBC), HotSpot kinase assay. The source says: (§1) This assay uses the isolated kinase enzyme. This assay is very useful for determining competition of the inhibitor for ATP and/or substrates and for measuring the kinetics of enzyme inhibition. […] Unlike kinase binding assays that measure competition for ATP, the HotSpot Kinase Assay is a functional assay that measures catalytic activity; as such it measures relative functional potency regardless of the mechanism of enzyme inhibition. This assay uses the form of the various enzymes that are easiest to express, which may not necessarily be the form of the enzyme that exist in the cell. (Sometimes the carboxy terminus has been truncated to aid in expression, or, if it is a receptor kinase, the enzyme itself is isolated from the other parts of the receptor that are involved in regulating kinase activity.)
(§2) The reagent used was as follows: Base Reaction buffer; 20 mM Hepes (pH 7.5), 10 mM MgCl2, 1 mM EGTA, 0.01% Brij35, 0.02 mg/ml BSA, 0.1 mM Na3VO4, 2 mM DTT, 1% DMSO. Required cofactors were added individually to each kinase reaction.
(§3) The reaction procedure was as follows: • 1) Substrates were prepared in freshly prepared Reaction Buffer. • 2) Any required cofactors were delivered to the substrate solution above. • 3) Kinase was delivered into the substrate solution and gently mixed. • 4) Compounds were delivered in 100% DMSO into the kinase reaction mixture by Acoustic technology (Echo550; nanoliter range), followed by incubation for 20 min at room temp. • 5)^33P-ATP was delivered into the reaction mixture to initiate the reaction. • 6) The mixture was incubated for 2 hours at room temperature. • 7) Kinase activity was detected by P81 filter-binding method.

A further assay addresses T2, FLT3 (Homo sapiens, UniProt P36888).
T2 sequence (P36888 27-993): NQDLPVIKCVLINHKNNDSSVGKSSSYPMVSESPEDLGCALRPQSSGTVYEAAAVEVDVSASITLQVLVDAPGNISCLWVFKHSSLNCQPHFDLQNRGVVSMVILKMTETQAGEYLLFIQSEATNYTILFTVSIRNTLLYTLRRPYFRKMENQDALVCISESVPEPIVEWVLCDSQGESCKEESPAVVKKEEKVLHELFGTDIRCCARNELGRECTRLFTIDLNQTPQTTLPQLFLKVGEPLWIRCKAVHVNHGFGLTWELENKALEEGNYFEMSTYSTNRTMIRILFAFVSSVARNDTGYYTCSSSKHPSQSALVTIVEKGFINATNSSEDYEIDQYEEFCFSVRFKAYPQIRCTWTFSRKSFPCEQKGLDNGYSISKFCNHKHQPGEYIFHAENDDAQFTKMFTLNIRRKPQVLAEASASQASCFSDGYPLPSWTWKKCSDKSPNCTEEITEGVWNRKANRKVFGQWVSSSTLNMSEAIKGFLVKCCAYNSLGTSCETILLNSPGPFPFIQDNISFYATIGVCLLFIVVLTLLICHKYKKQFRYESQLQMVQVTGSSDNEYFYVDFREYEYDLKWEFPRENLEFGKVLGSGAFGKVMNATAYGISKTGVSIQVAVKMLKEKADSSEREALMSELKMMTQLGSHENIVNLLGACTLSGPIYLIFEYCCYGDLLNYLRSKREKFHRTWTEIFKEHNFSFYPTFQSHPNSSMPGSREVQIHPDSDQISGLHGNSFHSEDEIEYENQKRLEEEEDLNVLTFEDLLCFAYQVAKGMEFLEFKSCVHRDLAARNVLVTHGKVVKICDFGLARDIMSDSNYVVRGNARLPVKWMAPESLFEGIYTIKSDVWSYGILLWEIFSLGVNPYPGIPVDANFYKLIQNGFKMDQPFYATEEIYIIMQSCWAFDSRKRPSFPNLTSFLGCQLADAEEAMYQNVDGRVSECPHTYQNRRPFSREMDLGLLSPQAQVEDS
The experiment in a line: RBC HotSpot Kinase Assay, FLT3. Also noted: purchased Reaction Biology (RBC), HotSpot kinase assay.
From the text: as §1, §2, §3

The next assay concerns the target T3, IRAK1 (Homo sapiens, UniProt P51617).
T3 construct: purchased Reaction Biology (RBC), HotSpot kinase assay
The assay is described as follows: RBC HotSpot Kinase Assay, IRAK1.
From the text: as §1, §2, §3

T3 sequence (P51617 whole entry): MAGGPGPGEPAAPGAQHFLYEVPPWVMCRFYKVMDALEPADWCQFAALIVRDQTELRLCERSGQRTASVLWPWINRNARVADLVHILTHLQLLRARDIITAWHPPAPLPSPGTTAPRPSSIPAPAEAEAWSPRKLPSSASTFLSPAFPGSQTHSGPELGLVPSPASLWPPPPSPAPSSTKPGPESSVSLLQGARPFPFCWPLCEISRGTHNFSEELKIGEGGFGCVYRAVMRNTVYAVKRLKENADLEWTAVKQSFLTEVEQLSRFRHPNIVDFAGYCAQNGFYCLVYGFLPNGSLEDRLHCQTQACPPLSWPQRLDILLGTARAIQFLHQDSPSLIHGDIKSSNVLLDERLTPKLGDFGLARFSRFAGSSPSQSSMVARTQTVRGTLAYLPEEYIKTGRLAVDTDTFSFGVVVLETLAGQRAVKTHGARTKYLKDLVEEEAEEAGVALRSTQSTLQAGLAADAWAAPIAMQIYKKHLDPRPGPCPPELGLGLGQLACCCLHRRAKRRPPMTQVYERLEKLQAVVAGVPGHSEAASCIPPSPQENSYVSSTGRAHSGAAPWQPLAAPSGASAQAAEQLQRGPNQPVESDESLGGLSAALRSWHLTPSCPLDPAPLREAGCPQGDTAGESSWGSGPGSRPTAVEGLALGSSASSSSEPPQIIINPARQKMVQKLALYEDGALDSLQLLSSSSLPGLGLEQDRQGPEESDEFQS

Consider `c1cc(N[C@@H]2CCCNC2)nc(-c2cnc3cnc(-c4cnn5ccccc45)cn23)c1` [Compound 47], for which the IC50 at IRAK4 is 7 nM; against FLT3 it was below 0.5 nM; against IRAK1 it was 154 nM.

On to `FC(F)n1cc(-c2cn3c(-c4cccc(N[C@H]5CNC[C@@H]5F)n4)cnc3cn2)cn1` [Compound 53, 6-(6-(1-(difluoromethyl)-1H-pyrazol-4-yl)imidazo[1,2-a]pyrazin-3-yl)-N-((3S,4S)-4-fluoropyrrolidin-3-yl)pyridin-2-amine], for which the IC50 was determined as 12 nM at IRAK4, 0.6 nM against FLT3 and 1250 nM against IRAK1.

Consider `CC(C)(O)Cn1cc(-c2cn3c(-c4cccc(N[C@H]5CNC[C@@H]5F)n4)cnc3cn2)cn1` [Compound 54, 1-(4-(3-(6-(((3S,4S)-4-fluoropyrrolidin-3-yl)amino)pyridin-2-yl)imidazo[1,2-a]pyrazin-6-yl)-1H-pyrazol-1-yl)-2-methylpropan-2-ol], for which the values for the IC50 against IRAK4, on FLT3 and on IRAK1 were 5 nM, below 0.5 nM and 2290 nM, respectively.

Turning to `F[C@H]1CNC[C@@H]1Nc1cccc(-c2cnc3cnc(-c4cnn5ccccc45)cn23)n1` [Compound 55, N-((3S,4S)-4-fluoropyrrolidin-3-yl)-6-(6-(pyrazolo[1,5-a]pyridin-3-yl)imidazo[1,2-a]pyrazin-3-yl)pyridin-2-amine], the IC50 at IRAK4 is below 0.5 nM; against FLT3, below 0.5 nM; on IRAK1, 304 nM.

In the case of `COc1cn2c(-c3cccc(N[C@H]4CNC[C@@H]4F)n3)cnc2cn1` [Compound 56, N-((3S,4S)-4-fluoropyrrolidin-3-yl)-6-(6-methoxyimidazo[1,2-a]pyrazin-3-yl)pyridin-2-amine], the IC50 at IRAK4 worked out at 4 nM; against FLT3 it was 0.7 nM; on IRAK1, 840 nM.

For `CC1(C)CCN(c2cn3c(-c4cccc(N[C@H]5CNC[C@@H]5F)n4)cnc3cn2)C1=O` [Compound 61, 1-(3-(6-(((3S,4S)-4-fluoropyrrolidin-3-yl)amino)pyridin-2-yl)imidazo[1,2-a]pyrazin-6-yl)-3,3-dimethylpyrrolidin-2-one], the IC50 against IRAK4 was determined as 46 nM; on FLT3, 2 nM; on IRAK1 it was 3540 nM.

With `CC1(C)CC(=O)N(c2cn3c(-c4cccc(N[C@H]5CNC[C@@H]5F)n4)cnc3cn2)C1` [Compound 63, 1-(3-(6-(((3S,4S)-4-fluoropyrrolidin-3-yl)amino)pyridin-2-yl)imidazo[1,2-a]pyrazin-6-yl)-4,4-dimethylpyrrolidin-2-one], the IC50 on IRAK4 was 238 nM; at FLT3, below 0.5 nM; at IRAK1, 3430 nM.

On to `OC1(C(F)(F)F)CCN(c2cn3c(-c4cccc(N[C@H]5CNC[C@@H]5F)n4)cnc3cn2)C1` (stereo partly drawn) [Compound 66, 1-(3-(6-(((3S,4S)-4-fluoropyrrolidin-3-yl)amino)pyridin-2-yl)imidazo[1,2-a]pyrazin-6-yl)-3-(trifluoromethyl)pyrrolidin-3-ol], for which the IC50 against IRAK4 stood at 4 nM; at FLT3, 1 nM; against IRAK1, 6020 nM.

Take `F[C@H]1CNC[C@@H]1Nc1cccc(-c2cnc3cnc(N4CCC(F)(F)C4)cn23)n1` [Compound 67, 6-(6-(3,3-difluoropyrrolidin-1-yl)imidazo[1,2-a]pyrazin-3-yl)-N-((3S,4S)-4-fluoropyrrolidin-3-yl)pyridin-2-amine]: the IC50 on IRAK4 was determined as 4 nM; at FLT3 it was 0.7 nM; on IRAK1, 8190 nM.

On to `c1cc(N[C@@H]2CCCNC2)nc(-c2cnc3cnccn23)c1` [Compound 69, (R)-6-(imidazo[1,2-a]pyrazin-3-yl)-N-(piperidin-3-yl)pyridin-2-amine], for which the values for the IC50 at IRAK4, at FLT3 and at IRAK1 were 15 nM, below 0.5 nM and 2030 nM, respectively.

Consider `F[C@H]1CCNC[C@@H]1Nc1cccc(-c2cnc3cnccn23)n1` [Compound 70, N-((3S,4S)-4-fluoropiperidin-3-yl)-6-(imidazo[1,2-a]pyrazin-3-yl)pyridin-2-amine], for which the IC50 against IRAK4 was 20 nM; against FLT3 it was below 0.5 nM; at IRAK1, 696 nM.

On to `c1cc(N[C@H]2CNCC23CC3)nc(-c2cnc3cnccn23)c1` [Compound 71, (R)-N-(6-(imidazo[1,2-a]pyrazin-3-yl)pyridin-2-yl)-5-azaspiro[2.4]heptan-7-amine], for which the half-maximal inhibitory concentration (IC50) at IRAK4 was 2 nM; on FLT3, below 0.5 nM; against IRAK1, 966 nM.

As for `CC1(C)CNCC1Nc1cccc(-c2cnc3cnccn23)n1` (stereo not drawn) [Compound 72], the values for the IC50 against IRAK4, at FLT3 and at IRAK1 were 14 nM, below 0.5 nM and 4190 nM, respectively.

On to `C[C@H]1CNC[C@@H]1Nc1cccc(-c2cnc3cnccn23)n1` [Compound 73, 6-(imidazo[1,2-a]pyrazin-3-yl)-N-((3R,4S)-4-methylpyrrolidin-3-yl)pyridin-2-amine], for which the IC50 against IRAK4 was 2 nM; on FLT3, below 0.5 nM; at IRAK1, 622 nM.

As to `CC1(C)CCNCC1Nc1cccc(-c2cnc3cnccn23)n1` (stereo not drawn) [Compound 74, N-(4,4-dimethylpiperidin-3-yl)-6-(imidazo[1,2-a]pyrazin-3-yl)pyridin-2-amine], the figures for the IC50 on IRAK4, against FLT3 and against IRAK1 were 14 nM, below 0.5 nM and 4780 nM, respectively.

For the compound `CCOc1cn2c(-c3cccc(N[C@H]4CNC[C@@H]4F)n3)cnc2cn1` [compound 57, 6-(6-ethoxyimidazo[1,2-a]pyrazin-3-yl)-N-((3S,4S)-4-fluoropyrrolidin-3-yl)pyridin-2-amine], the concentration for half-maximal inhibition (IC50) against IRAK4 was 2 nM; at FLT3, below 0.5 nM; against IRAK1, 165 nM.

As to `O=C1CC2(COC2)CN1c1cn2c(-c3cccc(N[C@H]4CNC[C@@H]4F)n3)cnc2cn1` [compound 62, 6-(3-(6-(((3S,4S)-4-fluoropyrrolidin-3-yl)amino)pyridin-2-yl)imidazo[1,2-a]pyrazin-6-yl)-2-oxa-6-azaspiro[3.4]octan-7-one], the IC50 was 86 nM at IRAK4, below 0.5 nM on FLT3 and 7010 nM on IRAK1.
